We go through four substances from patent US20220408725A1, “NEW DEFOLIANT AND APPLICATION THEREOF” (CHENGDU NEWSUN CROP SCIENCE CO., LTD., priority 2020, published 2022).

This assay relates to pepper plants. The assay can be described thus: Pot spray test of defoliants on pepper plants (defoliation rate and fruit abscission rate). Type of assay: in vivo. The settings on record: sprayed once. The procedure:
1 Test temperature and humidity
The defoliant listed in Table 1 is diluted to a certain extent for application. See Table 2 for the active constituents and dilution factor of the defoliant.
100X, 160X and 400X dilution of the C12-C14 fatty alcohol polyoxyethylene (5) ether refers to 100X, 160X and 400X dilution of the defoliant listed in Table 1 containing an active constituent of C12-C14 fatty alcohol polyoxyethylene (5) ether. 160X+1400X dilution of the C12-C14 fatty alcohol polyoxyethylene (5) ether+40% ethephon refers to 160X dilution of the defoliant listed in Table 1 containing an active constituent of C12-C14 fatty alcohol polyoxyethylene (5) ether and mixture with 40% ethephon subject to 1400X dilution, equivalent to that the mixed solution contains 0.5% of C12-C14 fatty alcohol polyoxyethylene (5) ether and 0.029% of ethephon.
A total of 7 treatment plots (including 1 for control group, with water) are arranged for the test, each including 5 pots.
Spray method. The test reagent is prepared according to the design requirements, and then applied once to each treatment plot by uniformly spraying it onto each pot as per 100 ml/m^2 of water consumption, while ensuring consistent spray onto each treatment plot and sufficient spray to cover the whole plant.
Investigating the total number of treated leaves and fruits of each plant before application of the reagent, and 3 days, 5 days, 7 days, 20 days and 25 days after the application, calculating the defoliation rate and observing the influence on fruits.
Adding fixedly 150 ml of water to each pot each time.
According to the investigated data, calculating the defoliation rate as per equation (1), in the unit of percentage (%), rounded to two decimal places.
(1) Defoliation rate (%)=(total number of treated leaves—number of remaining leaves)/total number of treated leaves.
(2) Corrected defoliation rate (%)=(defoliation rate of the treatment plot—defoliation rate of the control group)/(1-defoliation rate of the control group)*100.
If the defoliation rate of the control group <5%, correction is not required; otherwise, the result should be corrected as per equation (2).
(3) Fruit abscission rate (%)=(total number of treated fruits—number of remaining fruits)/total number of treated fruits.
The defoliation effect on the pepper plants is analyzed through comparison of the results of the pots before and after application of the reagent and the control group.

Setting [1] is: 100X dilution of Table 1 defoliant.
Where [2] appears, read: 160X dilution of Table 1 defoliant.
The mark [3] stands for this setting: 400X dilution of Table 1 defoliant.

As for “Isomeric C13 fatty alcohol polyoxyethylene (5) ether [Treatment 4]”, under setting [1], the “Defoliation rate 3 days after application” value (from here on “Defoliation rate 3 days”) is 23.88%, the “Defoliation rate 5 days after application” value (“Defoliation rate 5 days” for short) was determined as 40.42%, the “Defoliation rate 7 days after application” value (“Defoliation rate 7 days” for short) was 66.7% and the “Defoliation rate 20 days after application” value (“Defoliation rate 20 days” for short) was determined as 64.66%. For the same substance, the “Defoliation rate 25 days after application” value (from here on “Defoliation rate 25 days”) under setting [1] was 16.35%. Also, under setting [2], the “Defoliation rate 3 days” value is recorded as 14.35%, the “Defoliation rate 5 days” value is 16.59%, the “Defoliation rate 7 days” value is recorded as 25.25% and the “Defoliation rate 20 days” value was found to be 27.79%. In addition, the “Defoliation rate 25 days” value under setting [2] worked out at 7.78%. Under setting [3], the “Defoliation rate 3 days” value is listed as −3.15%, the “Defoliation rate 5 days” value was −2.02%, the “Defoliation rate 7 days” value is 5.81% and the “Defoliation rate 20 days” value stood at 8.88%. In addition, the “Defoliation rate 25 days” value under setting [3] is reported as −2.16%.

On to “Straight-chain C12-14 fatty alcohol polyoxyethylene (5) ether [Treatment 3]”, for which, under setting [1], the “Defoliation rate 3 days” value amounted to 54.46%, the “Defoliation rate 5 days” value is given as 68.84%, the “Defoliation rate 7 days” value amounted to 86.02% and the “Defoliation rate 20 days” value is reported as 69.02%. Also, the “Defoliation rate 25 days” value under setting [1] turned out to be 35.12%. For the same substance, under setting [2], the “Defoliation rate 3 days” value worked out at 38.84%, the “Defoliation rate 5 days” value turned out to be 43.16%, the “Defoliation rate 7 days” value is given as 64.73% and the “Defoliation rate 20 days” value is listed as 56.79%. Besides, the “Defoliation rate 25 days” value under setting [2] came out at 35.09%. Under setting [3], the “Defoliation rate 3 days” value turned out to be 6.99%, the “Defoliation rate 5 days” value is given as 10.84%, the “Defoliation rate 7 days” value is reported as 15.88% and the “Defoliation rate 20 days” value is 27.07%. Further, the “Defoliation rate 25 days” value under setting [3] was 8.36%.

“Full branched-chain C12 fatty alcohol polyoxyethylene (5) ether [Treatment 2]”: under setting [1], the “Defoliation rate 3 days” value turned out to be 72.15%, the “Defoliation rate 5 days” value was 87.4%, the “Defoliation rate 7 days” value amounted to 100% and the “Defoliation rate 20 days” value is given as 84.33%. Also, under setting [1], the “Defoliation rate 25 days” value is 75.8%. Also, under setting [2], the “Defoliation rate 3 days” value stood at 74.69%, the “Defoliation rate 5 days” value came to 85.12%, the “Defoliation rate 7 days” value amounted to 93.59% and the “Defoliation rate 20 days” value was 72.18%. Besides, the “Defoliation rate 25 days” value under setting [2] came out at 18.07%. In addition, under setting [3], the “Defoliation rate 3 days” value is 5.58%, the “Defoliation rate 5 days” value was determined as 16.17%, the “Defoliation rate 7 days” value was 21.83% and the “Defoliation rate 20 days” value worked out at 32.56%. Further, the “Defoliation rate 25 days” value under setting [3] was 7.88%.

As for “C12-C14 fatty alcohol polyoxyethylene (5) ether [Treatment 1]”, under setting [1], the “Defoliation rate 3 days” value amounted to 60.03%, the “Defoliation rate 5 days” value turned out to be 78.72%, the “Defoliation rate 7 days” value was found to be 94.97% and the “Defoliation rate 20 days” value is given as 69.9%. The “Defoliation rate 25 days” value under setting [1] is 18.42%. Also, under setting [2], the “Defoliation rate 3 days” value is listed as 66.25%, the “Defoliation rate 5 days” value came out at 70.63%, the “Defoliation rate 7 days” value came to 79.71% and the “Defoliation rate 20 days” value came to 73.64%. Also, the “Defoliation rate 25 days” value under setting [2] stood at 51.64%. In addition, under setting [3], the “Defoliation rate 3 days” value was −1.46%, the “Defoliation rate 5 days” value turned out to be 4.66%, the “Defoliation rate 7 days” value is 14.5% and the “Defoliation rate 20 days” value stood at 26.17%. For the same substance, the “Defoliation rate 25 days” value under setting [3] is reported as 17.95%.
